Data taken from patent publication US20020137929A1, “1 - (3-heterocyclylphenyl) isothiourea, -isourea, -guanidine and -amidine herbicidal agents” (Intellectual Property Department, BASF Aktiengesellschaft, priority 1998, published 2002).

Columns and labels:
[1] = test system: CHEAL (Lambsquarters, Common); test: Preemergence herbicidal evaluation; assay type: in vivo, Chenopodium album; conditions: rated 4-5 weeks after treatment; for CHEAL rating: preemergence, 0-9 scale
Summary of the method: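 Scores (0–9) reflect visual comparison with control plants for stand, vigor, malformation, size and chlorosis. Compound was applied to the soil after sowing, before emergence, as an aqueous acetone spray (about 0.0156–0.500 kg/ha), and cups were kept in a greenhouse for 4–5 weeks.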

[2] = test system: GALAP (Galium); test: Postemergence herbicidal evaluation; assay type: in vivo, Galium aparine; conditions: for GALAP herbicidal rating / herbicidal rating GALAP: postemergence
Summary of the method: (§1)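 Visual 0–9 rating versus control (stand, vigor, malformation, size, chlorosis, overall appearance), taken four to five weeks post-spray. Two-week-old seedlings received roughly 0.0156–0.500 kg/ha active in acetone/water (50/50) with 0.5% TWEEN 20 via nozzle at 40 psi.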

[3] = test system: MOOVA (Monochoria); test: Postemergence weed control under flooded paddy conditions; assay type: in vivo, Monochoria vaginalis; conditions: postemergence weeds
Summary of the method: (§2)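 Weeds 3 to 5 cm tall and rice seedlings at the 1.5 to 2.5 leaf stage were flooded, with water held 1.5 to 3 cm above the soil. Compounds in 50/50 v/v aqueous/acetone went into the flood water at about 0.0313 to 0.500 kg/ha. Visual 0-9 ratings versus control were made 3 to 4 weeks later.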

[4] = test system: TRZAWR (Wheat, Winter, cv Riband); test: Postemergence herbicidal evaluation; assay type: in vivo, Triticum aestivum; conditions: for TRZAWR herbicidal rating / herbicidal rating TRZAWR: postemergence
Summary of the method: as §1

[5] = test system: SAGPY (Arrowhead (Pygmaea)); test: Postemergence weed control under flooded paddy conditions; assay type: in vivo, Sagittaria pygmaea; conditions: postemergence weeds
Summary of the method: as §2

[6] = test system: AMBEL (Ragweed, Common); test: Postemergence herbicidal evaluation; assay type: in vivo, Ambrosia artemisifolia; conditions: for AMBEL herbicidal rating / herbicidal rating AMBEL: postemergence
Summary of the method: as §1

[7] = rate 0.0313 kg/ha, 3-4 weeks after treatment
[8] = rate 0.0625 kg/ha, 3-4 weeks after treatment
[9] = rate 0.1250 kg/ha, 3-4 weeks after treatment
[10] = rate 0.2500 kg/ha, 3-4 weeks after treatment
[11] = Rate 0.0313 kg/ha, rated 3 to 4 weeks after treatment
[12] = Rate 0.0625 kg/ha, rated 3 to 4 weeks after treatment
[13] = Rate 0.1250 kg/ha, rated 3 to 4 weeks after treatment
[14] = Rate 0.2500 kg/ha, rated 3 to 4 weeks after treatment

Cn1c(C(F)(F)F)cc(=O)n(-c2cc(N=C3SCC(=O)N3[C@@H](Cc3ccccc3)C(=O)O)c(Cl)cc2F)c1=O [Compound 53, α-Benzyl-2-{{2-chloro-5-[3,6-dihydro-3-methyl-2,6-dioxo-4-(trifluoromethyl)-1(2H)-pyrimidinyl]-4-fluorophenyl}imino}-4-oxo-3-thiazolidineacetic acid, L-]
Preemergence herbicidal rating CHEAL ([1]; rate 0.0313 kg/ha): 9.0
Preemergence herbicidal rating CHEAL ([1]; rate 0.0625 kg/ha): 9.0
Preemergence herbicidal rating CHEAL ([1]; rate 0.1250 kg/ha): 9.0
Preemergence herbicidal rating CHEAL ([1]; rate 0.2500 kg/ha): 9.0
Postemergence herbicidal rating GALAP ([2]; Rate 0.0158 kg/ha): 3.0
Postemergence herbicidal rating GALAP ([2]; Rate 0.0315 kg/ha): 7.0
Postemergence herbicidal rating GALAP ([2]; Rate 0.0630 kg/ha): 9.0
Herbicidal rating MOOVA [3, 7]: 2.0
Herbicidal rating MOOVA [3, 8]: 2.0
Herbicidal rating MOOVA [3, 9]: 9.0
Herbicidal rating MOOVA [3, 10]: 9.0
Postemergence herbicidal rating TRZAWR ([4]; Rate 0.0158 kg/ha): 2.5
Postemergence herbicidal rating TRZAWR ([4]; Rate 0.0315 kg/ha): 3.0
Postemergence herbicidal rating TRZAWR ([4]; Rate 0.0630 kg/ha): 4.0
Herbicidal rating SAGPY [5, 7]: 0.0
Herbicidal rating SAGPY [5, 8]: 0.0
Herbicidal rating SAGPY [5, 9]: 0.0
Herbicidal rating SAGPY [5, 10]: 0.0
Postemergence herbicidal rating AMBEL ([6]; Rate 0.0158 kg/ha): 9.0
Postemergence herbicidal rating AMBEL ([6]; Rate 0.0315 kg/ha): 9.0
Postemergence herbicidal rating AMBEL ([6]; Rate 0.0630 kg/ha): 9.0

C=CCN1C(=O)CSC1=Nc1cc(-n2c(=O)cc(C(F)(F)F)n(C)c2=O)c(F)cc1Cl [Compound 27]
Preemergence herbicidal rating CHEAL ([1]; rate 0.0156 kg/ha): 0.0
Preemergence herbicidal rating CHEAL ([1]; rate 0.0313 kg/ha): 9.0
Preemergence herbicidal rating CHEAL ([1]; rate 0.0625 kg/ha): 9.0
Preemergence herbicidal rating CHEAL ([1]; rate 0.1250 kg/ha): 9.0
Preemergence herbicidal rating CHEAL ([1]; rate 0.2500 kg/ha): 9.0
GALAP herbicidal rating ([2]; rate 0.0158 kg/ha): 1.0
GALAP herbicidal rating ([2]; rate 0.0315 kg/ha): 4.0
GALAP herbicidal rating ([2]; rate 0.0630 kg/ha): 4.0
Herbicidal rating MOOVA [3, 7]: 9.0
Herbicidal rating MOOVA [3, 8]: 9.0
Herbicidal rating MOOVA [3, 9]: 9.0
Herbicidal rating MOOVA [3, 10]: 9.0
TRZAWR herbicidal rating ([4]; rate 0.0158 kg/ha): 3.0
TRZAWR herbicidal rating ([4]; rate 0.0315 kg/ha): 4.0
TRZAWR herbicidal rating ([4]; rate 0.0630 kg/ha): 4.5
Herbicidal rating SAGPY [5, 7]: 0.0
Herbicidal rating SAGPY [5, 8]: 0.0
Herbicidal rating SAGPY [5, 9]: 4.0
Herbicidal rating SAGPY [5, 10]: 4.0
AMBEL herbicidal rating ([6]; rate 0.0158 kg/ha): 4.0
AMBEL herbicidal rating ([6]; rate 0.0315 kg/ha): 5.0
AMBEL herbicidal rating ([6]; rate 0.0630 kg/ha): 7.0

CCOC(=O)CN1C(=O)C(CC)SC1=Nc1cc(-n2c(=O)cc(C(F)(F)F)n(C)c2=O)c(F)cc1Cl (centres unmarked) [Compound 13, Ethyl 2-{{2-chloro-5-[3,6-dihydro-3-methyl-2,6-dioxo-4-(trifluoromethyl)-1(2H)-pyrimidinyl]-4-fluorophenyl}imino}-5-ethyl-4-oxo-3-thiazolidineacetate]
CHEAL preemergence herbicidal rating ([1]; rate 0.0156 kg/ha): 9.0
CHEAL preemergence herbicidal rating ([1]; rate 0.0313 kg/ha): 9.0
CHEAL preemergence herbicidal rating ([1]; rate 0.0625 kg/ha): 9.0
CHEAL preemergence herbicidal rating ([1]; rate 0.1250 kg/ha): 9.0
CHEAL preemergence herbicidal rating ([1]; rate 0.2500 kg/ha): 9.0
GALAP herbicidal rating ([2]; rate 0.0156 kg/ha): 3.0
GALAP herbicidal rating ([2]; rate 0.0313 kg/ha): 3.0
GALAP herbicidal rating ([2]; rate 0.0625 kg/ha): 5.0
GALAP herbicidal rating ([2]; rate 0.1250 kg/ha): 5.0
Herbicidal rating MOOVA [3, 7]: 9.0
Herbicidal rating MOOVA [3, 8]: 9.0
Herbicidal rating MOOVA [3, 9]: 9.0
Herbicidal rating MOOVA [3, 10]: 9.0
TRZAWR herbicidal rating ([4]; rate 0.0156 kg/ha): 4.5
TRZAWR herbicidal rating ([4]; rate 0.0313 kg/ha): 4.5
TRZAWR herbicidal rating ([4]; rate 0.0625 kg/ha): 6.0
TRZAWR herbicidal rating ([4]; rate 0.1250 kg/ha): 6.0
Herbicidal rating SAGPY [5, 7]: 0.0
Herbicidal rating SAGPY [5, 8]: 0.0
Herbicidal rating SAGPY [5, 9]: 0.0
Herbicidal rating SAGPY [5, 10]: 0.0
AMBEL herbicidal rating ([6]; rate 0.0156 kg/ha): 7.0
AMBEL herbicidal rating ([6]; rate 0.0313 kg/ha): 9.0
AMBEL herbicidal rating ([6]; rate 0.0625 kg/ha): 9.0
AMBEL herbicidal rating ([6]; rate 0.1250 kg/ha): 9.0

Cn1c(C(F)(F)F)cc(=O)n(-c2cc(N=C3SCC(=O)N3CC(=O)NS(C)(=O)=O)c(Cl)cc2F)c1=O [Compound 38, 2-{{2-Chloro-5-[3,6-dihydro-3-methyl-2,6-dioxo-4-(trifluoromethyl)-1(2H)-pyrimidinyl]-4-fluoro-phenyl}imino}-N-(methylsulfonyl)-4-oxo-3-thiazolidineacetamide]
Preemergence herbicidal rating CHEAL ([1]; rate 0.0313 kg/ha): 9.0
Preemergence herbicidal rating CHEAL ([1]; rate 0.0625 kg/ha): 9.0
Preemergence herbicidal rating CHEAL ([1]; rate 0.1250 kg/ha): 9.0
Preemergence herbicidal rating CHEAL ([1]; rate 0.2500 kg/ha): 9.0
Postemergence herbicidal rating GALAP ([2]; Rate 0.0156 kg/ha): 0.0
Postemergence herbicidal rating GALAP ([2]; Rate 0.0313 kg/ha): 1.0
Postemergence herbicidal rating GALAP ([2]; Rate 0.0625 kg/ha): 3.0
Postemergence herbicidal rating GALAP ([2]; Rate 0.1250 kg/ha): 3.0
Postemergence herbicidal rating GALAP ([2]; Rate 0.2500 kg/ha): 8.0
Herbicidal rating MOOVA [3, 7]: 9.0
Herbicidal rating MOOVA [3, 8]: 9.0
Herbicidal rating MOOVA [3, 9]: 9.0
Herbicidal rating MOOVA [3, 10]: 9.0
Postemergence herbicidal rating TRZAWR ([4]; Rate 0.0156 kg/ha): 5.0
Postemergence herbicidal rating TRZAWR ([4]; Rate 0.0313 kg/ha): 5.5
Postemergence herbicidal rating TRZAWR ([4]; Rate 0.0625 kg/ha): 6.5
Postemergence herbicidal rating TRZAWR ([4]; Rate 0.1250 kg/ha): 8.0
Postemergence herbicidal rating TRZAWR ([4]; Rate 0.2500 kg/ha): 8.0
Herbicidal rating SAGPY [5, 7]: 0.0
Herbicidal rating SAGPY [5, 8]: 3.0
Herbicidal rating SAGPY [5, 9]: 4.0
Herbicidal rating SAGPY [5, 10]: 9.0
Postemergence herbicidal rating AMBEL ([6]; Rate 0.0156 kg/ha): 3.0
Postemergence herbicidal rating AMBEL ([6]; Rate 0.0313 kg/ha): 5.0
Postemergence herbicidal rating AMBEL ([6]; Rate 0.0625 kg/ha): 5.0
Postemergence herbicidal rating AMBEL ([6]; Rate 0.1250 kg/ha): 9.0
Postemergence herbicidal rating AMBEL ([6]; Rate 0.2500 kg/ha): 9.0

CCS(=O)(=O)NC(=O)CC1SC(=Nc2cc(-n3c(=O)cc(C(F)(F)F)n(C)c3=O)c(F)cc2Cl)N(C)C1=O (centres unmarked) [Compound 105, 2-{{2-Chloro-5-[3,6-dihydro-3-methyl-2,6-dioxo-4-(trifluoromethyl)-1(2H)-pyrimidinyl]-4-fluorophenyl}imino}-N-(ethylsulfonyl)-3-methyl-4-oxo-5-thiazolidineacetamide]
CHEAL rating ([1]; 0.1250 kg/ha): 9.0
CHEAL rating ([1]; 0.2500 kg/ha): 9.0
CHEAL rating ([1]; 0.5000 kg/ha): 9.0
herbicidal rating GALAP ([2]; rate 0.0156 kg/ha): 0.0
herbicidal rating GALAP ([2]; rate 0.0313 kg/ha): 0.0
herbicidal rating GALAP ([2]; rate 0.0625 kg/ha): 1.0
herbicidal rating GALAP ([2]; rate 0.1250 kg/ha): 2.0
Herbicidal rating MOOVA [3, 11]: 6.0
Herbicidal rating MOOVA [3, 12]: 7.0
Herbicidal rating MOOVA [3, 13]: 7.0
Herbicidal rating MOOVA [3, 14]: 9.0
herbicidal rating TRZAWR ([4]; rate 0.0156 kg/ha): 3.5
herbicidal rating TRZAWR ([4]; rate 0.0313 kg/ha): 3.0
herbicidal rating TRZAWR ([4]; rate 0.0625 kg/ha): 3.5
herbicidal rating TRZAWR ([4]; rate 0.1250 kg/ha): 3.5
Herbicidal rating SAGPY [5, 11]: 3.0
Herbicidal rating SAGPY [5, 12]: 5.0
Herbicidal rating SAGPY [5, 13]: 5.0
Herbicidal rating SAGPY [5, 14]: 7.0
herbicidal rating AMBEL ([6]; rate 0.0156 kg/ha): 0.0
herbicidal rating AMBEL ([6]; rate 0.0313 kg/ha): 0.0
herbicidal rating AMBEL ([6]; rate 0.0625 kg/ha): 3.0
herbicidal rating AMBEL ([6]; rate 0.1250 kg/ha): 9.0

CCOC(=O)CN1C(=O)C(CC(=O)NS(=O)(=O)CC)SC1=Nc1cc(-n2c(=O)cc(C(F)(F)F)n(C)c2=O)c(F)cc1Cl (centres unmarked) [Compound 103, Ethyl 2-{{2-chloro-5-[3,6-dihydro-3-methyl-2,6-dioxo-4-(trifluoromethyl)-1(2H)-pyrimidinyl]-4-fluorophenyl}imino}-5-{[(ethylsulfonyl)carbamoyl]-methyl}-4-oxo-3-thiazolidineacetate]
CHEAL rating ([1]; 0.0313 kg/ha): 0.0
CHEAL rating ([1]; 0.0625 kg/ha): 4.0
CHEAL rating ([1]; 0.1250 kg/ha): 9.0
CHEAL rating ([1]; 0.2500 kg/ha): 9.0
CHEAL rating ([1]; 0.5000 kg/ha): 9.0
herbicidal rating GALAP ([2]; rate 0.0156 kg/ha): 0.0
herbicidal rating GALAP ([2]; rate 0.0313 kg/ha): 3.0
herbicidal rating GALAP ([2]; rate 0.0625 kg/ha): 5.0
herbicidal rating GALAP ([2]; rate 0.1250 kg/ha): 7.0
Herbicidal rating MOOVA [3, 11]: 5.0
Herbicidal rating MOOVA [3, 12]: 7.0
Herbicidal rating MOOVA [3, 13]: 9.0
Herbicidal rating MOOVA [3, 14]: 9.0
herbicidal rating TRZAWR ([4]; rate 0.0156 kg/ha): 3.5
herbicidal rating TRZAWR ([4]; rate 0.0313 kg/ha): 6.0
herbicidal rating TRZAWR ([4]; rate 0.0625 kg/ha): 7.5
herbicidal rating TRZAWR ([4]; rate 0.1250 kg/ha): 7.5
Herbicidal rating SAGPY [5, 11]: 7.0
Herbicidal rating SAGPY [5, 12]: 9.0
Herbicidal rating SAGPY [5, 13]: 9.0
Herbicidal rating SAGPY [5, 14]: 9.0
herbicidal rating AMBEL ([6]; rate 0.0156 kg/ha): 9.0
herbicidal rating AMBEL ([6]; rate 0.0313 kg/ha): 9.0
herbicidal rating AMBEL ([6]; rate 0.0625 kg/ha): 9.0
herbicidal rating AMBEL ([6]; rate 0.1250 kg/ha): 9.0
